Literature values, collected in US11026933B2, “Compositions and methods for treatment of cancer” (Children's Hospital Medical Center, priority 2016, dated 2021).

Legend:
FOXM1 [1] = molecular target: T1, FOXM1 (Homo sapiens, UniProt Q08050); details: Gormally et al., 2014
T1 sequence (Q08050 1-763): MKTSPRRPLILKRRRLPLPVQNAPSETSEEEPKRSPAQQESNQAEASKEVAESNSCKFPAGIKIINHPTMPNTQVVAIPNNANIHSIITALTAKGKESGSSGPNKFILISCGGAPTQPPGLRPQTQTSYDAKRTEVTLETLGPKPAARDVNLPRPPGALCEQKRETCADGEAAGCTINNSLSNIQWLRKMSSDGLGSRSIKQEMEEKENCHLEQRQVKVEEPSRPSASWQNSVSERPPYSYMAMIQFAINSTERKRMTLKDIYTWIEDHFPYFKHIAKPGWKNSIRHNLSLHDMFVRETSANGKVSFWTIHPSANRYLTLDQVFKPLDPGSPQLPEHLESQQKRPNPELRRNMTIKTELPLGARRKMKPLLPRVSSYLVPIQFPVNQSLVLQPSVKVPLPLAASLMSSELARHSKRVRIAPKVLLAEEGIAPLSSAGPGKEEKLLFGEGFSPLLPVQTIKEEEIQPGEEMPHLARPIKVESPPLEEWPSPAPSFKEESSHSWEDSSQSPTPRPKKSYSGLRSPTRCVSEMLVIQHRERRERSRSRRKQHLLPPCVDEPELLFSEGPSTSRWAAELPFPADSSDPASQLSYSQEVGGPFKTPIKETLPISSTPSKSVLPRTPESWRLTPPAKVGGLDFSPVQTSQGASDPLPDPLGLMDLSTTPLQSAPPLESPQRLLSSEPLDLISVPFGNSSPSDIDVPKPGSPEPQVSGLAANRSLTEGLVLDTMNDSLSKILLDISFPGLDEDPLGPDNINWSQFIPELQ

FOXM1 [2] = molecular target: T1, FOXM1; details: Halasi and Gartel, 2013
FOXM1 [3] = molecular target: T1, FOXM1; details: Halasi and Gartel, 2013; remark: listed apart in the source
proteasome = details: Halasi and Gartel, 2013

In the case of `Nc1c(C(=O)Nc2ccc(F)cc2)sc2nc(-c3cccs3)cc(C(F)(F)F)c12` [FDI-6], the “FOXM1 binding to DNA” value (FOXM1 [1]) is given as “blocked FOXM1 binding to DNA” and the “binding to FOXM1 protein” value (FOXM1 [1]) is given as “directly bound to FOXM1 protein”.

In the case of `C=C(NC(=O)C(=C)NC(=O)c1csc(C2=N[C@@H]3c4csc(n4)[C@H]4NC(=O)c5csc(n5)[C@H]([C@](C)(O)[C@@H](C)O)NC(=O)[C@H]5CSC(=N5)/C(=C/C)NC(=O)[C@H]([C@@H](C)O)NC(=O)c5csc(n5)[C@]3(CC2)NC(=O)[C@H](C)NC(=O)C(=C)NC(=O)C(=C)NC(=O)[C@H](C(C)C)N[C@@H]2C=Cc3c([C@H](C)O)cc(nc3[C@H]2O)C(=O)O[C@@H]4C)n1)C(N)=O` [Siomycin A], the “inhibition of FOXM1 in cultured tumor cells” value (FOXM1 [2]) is listed as “inhibited FOXM1”, the “inhibition of FOXM1 in mouse tumor models” value (FOXM1 [3]) is listed as “inhibited FOXM1” and the proteasome inhibition (proteasome) is listed as “found to be proteasome inhibitors”.

For `C=C(NC(=O)C(=C)NC(=O)c1csc(C2=N[C@@H]3c4csc(n4)[C@H]4NC(=O)c5csc(n5)[C@H]([C@](C)(O)[C@@H](C)O)NC(=O)[C@H]5CSC(=N5)/C(=C/C)NC(=O)[C@H]([C@@H](C)O)NC(=O)c5csc(n5)[C@]3(CC2)NC(=O)[C@H](C)NC(=O)C(=C)NC(=O)[C@H](C)NC(=O)[C@H]([C@@H](C)CC)N[C@@H]2C=Cc3c([C@H](C)O)cc(nc3[C@H]2O)C(=O)O[C@@H]4C)n1)C(N)=O` [thiostrepton], the “inhibition of FOXM1 in cultured tumor cells” value (FOXM1 [2]) is listed as “inhibited FOXM1”, the “inhibition of FOXM1 in mouse tumor models” value (FOXM1 [3]) is listed as “inhibited FOXM1” and the proteasome inhibition (proteasome) is listed as “found to be proteasome inhibitors”.
